Reference: the supplement of paper PMC10307832

Legend:
Experiment in all cases: relative viability (nuclei count vs DMSO), 5 days (fraction); higher = more cells survive
RU-SKI 43 + Bortezomib = compound: CC[C@@H](C)CNCC(=O)N1CCC2=C([C@@H]1COC3=CC=CC(=C3)C)C=CS2 [RU-SKI 43] + CC(C)C[C@H](NC(=O)[C@H](Cc1ccccc1)NC(=O)c1cnccn1)B(O)O [Bortezomib] (partner 0.002 µM)
Outline: (§1)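 Values are medians from duplicate plates. Each reflects relative viability, defined as the nuclei count of treated wells over that of vehicle wells. Lung cancer cell lines in 1536-well plates were pin-tool dosed one day after seeding with one drug alone or with a fixed anchor-drug dose plus five library-drug doses (not always all listed) in √10 steps, then fixed, stained and imaged at 4× after 5 days.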

RU-SKI 43 + Linsitinib = compound: CC[C@@H](C)CNCC(=O)N1CCC2=C([C@@H]1COC3=CC=CC(=C3)C)C=CS2 [RU-SKI 43] + C[C@]1(O)C[C@@H](c2nc(-c3ccc4ccc(-c5ccccc5)nc4c3)c3c(N)nccn32)C1 [Linsitinib] (partner 1 µM)
Outline: as §1

RU-SKI 43 + Phenformin = compound: CC[C@@H](C)CNCC(=O)N1CCC2=C([C@@H]1COC3=CC=CC(=C3)C)C=CS2 [RU-SKI 43] + N=C(N)NC(=N)NCCc1ccccc1 [Phenformin] (partner 250 µM)
Outline: as §1

MK-8033 + Dasatinib = compound: Cn1cc(-c2cnc3ccc4ccc(CS(=O)(=O)NCc5ccccn5)cc4c(=O)c3c2)cn1 [MK-8033] + Cc1nc(Nc2ncc(C(=O)Nc3c(C)cccc3Cl)s2)cc(N2CCN(CCO)CC2)n1 [Dasatinib] (partner 0.075 µM)
Outline: as §1

Cell Line	relative viability (RU-SKI 43 + Bortezomib; first compound 0.1 µM)	relative viability (RU-SKI 43 + Bortezomib; first compound 0.3162 µM)	relative viability (RU-SKI 43 + Bortezomib; first compound 1 µM)	relative viability (RU-SKI 43 + Bortezomib; first compound 3.162 µM)	relative viability (RU-SKI 43 + Bortezomib; first compound 10 µM)	relative viability (RU-SKI 43 + Linsitinib; first compound 0.1 µM)	relative viability (RU-SKI 43 + Linsitinib; first compound 0.3162 µM)	relative viability (RU-SKI 43 + Linsitinib; first compound 1 µM)	relative viability (RU-SKI 43 + Linsitinib; first compound 3.162 µM)	relative viability (RU-SKI 43 + Linsitinib; first compound 10 µM)	relative viability (RU-SKI 43 + Phenformin; first compound 0.1 µM)	relative viability (RU-SKI 43 + Phenformin; first compound 0.3162 µM)	relative viability (RU-SKI 43 + Phenformin; first compound 1 µM)	relative viability (RU-SKI 43 + Phenformin; first compound 3.162 µM)	relative viability (RU-SKI 43 + Phenformin; first compound 10 µM)	relative viability (MK-8033 + Dasatinib; first compound 0.02 µM)	relative viability (MK-8033 + Dasatinib; first compound 0.06325 µM)	relative viability (MK-8033 + Dasatinib; first compound 0.2 µM)	relative viability (MK-8033 + Dasatinib; first compound 0.6325 µM)	relative viability (MK-8033 + Dasatinib; first compound 2 µM)
NCI-H1755	0.978	1.14	1.04	0.941	0.986	1.02	1.13	1.05	1.02	0.993	0.648	0.613	0.63	0.644	0.666	0.41	0.382	0.415	0.421	0.443
LOU-NH91	0.53	0.485	0.519	0.502	0.497	0.94	0.932	0.945	0.872	0.944	0.705	0.673	0.733	0.715	0.666	0.534	0.388	0.537	0.57	0.544
NCI-H1975	0.441	0.421	0.464	0.4	0.34	0.985	1.1	0.951	0.996	0.869	0.385	0.468	0.444	0.422	0.404	0.329	0.344	0.357		0.343
NCI-H650	1.02	0.779	1.1		0.891	0.918	0.696	1.13		0.911	0.479	0.37	0.509	0.425	0.475	0.491	0.446	0.471	0.386	0.489
SW 1573	1.13	1.42	1.16	0.947	0.901	0.884	0.824	0.841	0.692	0.688	0.432	0.35	0.42	0.381	0.31	0.444	0.508	0.502	0.424	0.466
NCI-H441	0.649	0.243	0.657	0.562	0.393	0.538	0.462	0.654	0.533	0.473	0.966	1.02	0.836	0.844	0.729	0.511	0.603	0.494	0.835	0.405
NCI-H838	0.718	0.955	0.912	0.748	0.992	1.05	1.22	1.07	1	1	0.682	0.626	0.745	0.654	0.682	0.258	0.281	0.259	0.279	0.247
NCI-H661	0.776	0.704	0.835	0.943	0.764	0.433	0.645	0.557	0.518	0.651	0.288	0.281	0.324	0.281	0.267	0.886	0.818	0.783	0.766	0.858
